Data published in publication PMC7822874, “Chemoprotective antimalarials identified through quantitative high-throughput screening of Plasmodium blood and liver stage parasites” (Scientific Reports, 2021).
Like-named read-outs stand apart in the source and are kept apart here.

Legend:
HepG2 = settings: human, hepg2 cells, 48 h
in vitro [1] = settings: human, hepg2 cells
[2] = tested on: P. falciparum Dd2 Cytb G131S; assay: SYBR Green ABS proliferation assay, NCGC00374598 selected clone C11; type: cell-based, Plasmodium falciparum; settings: Plasmodium falciparum
Method: (§1) As resistance selection studies implicated the parasite cytochrome bc1 complex in mediating reduced parasite susceptibility to both NCGC00473217 and NCGC00374598, we leveraged these drug-selected parasites to test for altered drug response to a panel of antimalarial compounds.
(§2) The P. falciparum parasite Dd2 line was cultured in vitro using standard conditions. […] Tissue culture flasks and assay plates were incubated at 37 °C under a gas mixture of 5% CO2, 5% O2 and 90% N2. […] Significant differences were assessed using two-sided Student’s t-tests. All HTS assays were stopped and read at 72 h. Percent response values represent relative growth as judged by SYBR Green-I fluorescence intensity values normalized to controls.
(§3) Fresh uninfected RBCs (0.5% hematocrit) were added on day 7 and media was changed every other day. […] Resistant parasites were maintained under drug media at a volume of 50 mL until a high parasitemia (> 5%) was achieved. Aliquots of the bulk resistant cultures were frozen in cryovials before cloning by limiting dilution in 96-well plates (seeded at 0.25 or 0.5 parasites/well)[70]. After 3 weeks of cloning, we screened for positive wells by flow cytometry with SYBR Green-stained cells. […] Parasites were harvested by saponin lysis at the trophozoite stage and genomic DNA was extracted using the QIAamp DNA Blood Midi Kit (Qiagen, Germantown, MD)[71].

[3] = tested on: P. falciparum Dd2 (clone B2) asexual blood stage parasites; assay: P. falciparum Dd2 asexual blood stage SYBR Green-I 72 h proliferation assay (qHTS); type: cell-based, Plasmodium falciparum; settings: Plasmodium falciparum, DD2, Dd2 parental; Hill fit, averaged from three independent replicates; top concentration 29 µM; read-out: Average AC50 (Log[M]), Dd2 (converted)
[4] = tested on: Plasmodium falciparum Dd2 asexual blood stage parasites; assay: microbe, parasite or virus in culture; design: species or system Plasmodium falciparum Dd2 in human erythrocytes; single determination (one 11-point concentration-response curve); settings: Plasmodium falciparum, DD2, Erythrocyte, 72 h; read-out: AC50
[5] = tested on: P. falciparum Dd2 Cytb V259L; assay: SYBR Green ABS proliferation assay, NCGC00473217 selected clone F06; type: cell-based, Plasmodium falciparum; settings: Plasmodium falciparum
Method: as §1, §2, §3

in vitro [6] = settings: human, HepG2-A16-CD81EGFP cells, uninfected
HepG2-A16-CD81EGFP cells = settings: average of 2 wells, repeat 2; for HepG2 viability signal, 1 uM, repeat 2: nominal 1 uM (10 mM stock), […] for 15 mM, 1.2 uM for 12 mM, 2 uM for 20 mM stock; for HepG2 viability signal, 3 uM, repeat 2: nominal 3 uM (10 mM stock), 4.5 uM for 15 mM, 3.6 uM for 12 mM, 6 uM for 20 mM stock
[7] = tested on: P. berghei-ANKA-GFP-LucCON liver stage parasites in HepG2-A16-CD81EGFP cells; assay: P. berghei liver stage Pb-Luc assay, Method 1 (UCSD, 1536-well); type: cell-based, Plasmodium berghei; settings: Plasmodium berghei; for activity at 1 µM / activity at 3 µM: 48 h, average of 2 wells, 1536-well plate; for activity at 1 µM: nominal 1 uM (10 mM stock), […] for 15 mM, 1.2 uM for 12 mM, 2 uM for 20 mM stock; for activity at 3 µM: nominal 3 uM (10 mM stock), 4.5 uM for 15 mM, 3.6 uM for 12 mM, 6 uM for 20 mM stock; for AC50: Method 1
[8] = DD2, […], averaged from three independent replicates, top concentration 29 µM, read-out: Average AC50 (Log[M]), NCGC00374598 clone C11 (Cytb G131S) (converted)
[9] = DD2, […], averaged from three independent replicates, top concentration 29 µM, read-out: Average AC50 (Log[M]), NCGC00473217 clone F06 (Cytb V259L) (converted)
[10] = repeat 1, read-out: Pb-Luc signal, 1 uM, repeat 1
[11] = repeat 2, read-out: Pb-Luc signal, 1 uM, repeat 2
[12] = repeat 3, read-out: Pb-Luc signal, 1 uM, repeat 3
[13] = repeat 1, read-out: Pb-Luc signal, 3 uM, repeat 1
[14] = repeat 2, read-out: Pb-Luc signal, 3 uM, repeat 2
[15] = repeat 3, read-out: Pb-Luc signal, 3 uM, repeat 3

Row | Structure (SMILES) | Log AC50 (M) (HepG2) | CC50 at 48 h (in vitro [1]) [µM] | AC50 [4] [µM] | other results
1 | Nc1nc(N)c2c(ccc3[nH]ccc32)n1 [MLS000758537-01] | -4.9143 | 12.2 | – | –
2 | O=C(N1CCCN(c2cc(-c3ccc(Cl)cc3)n[nH]2)CC1)C1(c2ccccc2)CC1 [NCGC00436184-01] | -4.3643 | 43.2 | – | –
3 | CCc1nnc(NC(=O)c2cc(Cl)ccn2)s1 [MLS001175292-01] | -4.3643 | 43.2 | – | –
4 | Cc1cc(=O)n(CC(=O)Nc2cccc(C(F)(F)F)c2)c(N2CCC(C)CC2)n1 [NCGC00432189-01] | -4.5143 | 30.6 | – | –
5 | N[S+](=O)([O-])c1cc2c(cc1Cl)N=CN[S+]2(=O)[O-] [NCGC00015242-14] | – | – | – | AC50 [2, 8]: 7.1e-07 M; AC50 [3]: 2e-06 M
6 | OC(CNCCc1ccccc1)COc1ccc(OCC(O)CNCCc2ccccc2)cc1 (stereo not drawn) [MLS000769724-01] | -4.3643 | 43.2 | – | –
7 | CCOC(=O)c1ccc(-c2ccc(/C=C(\C#N)c3nc4cc(C)ccc4[nH]3)o2)cc1 [NCGC00098928-01] | -4.3643 | 43.2 | – | –
8 | N=c1ccn(Cc2cccc(Cl)c2)cc1 [MLS000080111-01] | -4.4643 | 34.3 | – | –
9 | COc1ccc(CNc2ncnc3c2[nH]c2ccccc23)cc1 [MLS000768346-01] | -4.3643 | 43.2 | – | –
10 | Cc1ccccc1Cn1c(CN2CCC(C(=O)NCCN(C)C)CC2)cc2ccccc21 [NCGC00137638-01] | -4.3643 | 43.2 | – | –
11 | Cc1ccc(NC(=O)CSc2n[nH]c(-c3ccccn3)n2)cc1 [MLS001223214-01] | -4.6143 | 24.3 | – | –
12 | Cc1cc(N2CCC(N(C)C3CCCC3)CC2)nc2cc(O)ccc12 [MLS000118330-01] | – | > 57 | 5.96 | –
13 | Cc1nc(N2CCC(NC(=O)c3cc4ccccc4[nH]3)CC2)cc(C(F)(F)F)n1 [NCGC00455533-01] | -4.4643 | 34.3 | – | –
14 | Cc1nc(C)c(C(=O)N2CC(Oc3ccc(-c4noc(-c5ccccc5)n4)cc3)C2)s1 [NCGC00458037-01] | -4.5143 | 30.6 | – | –
15 | CCCN1C(CC(C)C)=N[S+](=O)([O-])c2cc(NC(=O)c3cccc(C#N)c3)ccc21 [NCGC00531772-01] | – | – | – | AC50 ([2]; DD2, cytochrome b mutant line, second value triple, c6, […], read-out: log AC50, mean (converted)): 2.67e-07 M; AC50 ([5]; DD2, cytochrome b mutant line, third value triple, c9, […], read-out: log AC50, mean (converted)): 8.93e-07 M
16 | COCCNc1ncccc1-c1noc([C@@H]2CCCN2Cc2ccccn2)n1 [NCGC00394837-01] | – | > 57 | 7.69 | –
17 | CCCN1C(CC(C)C)=N[S+](=O)([O-])c2cc(N[S+](=O)([O-])c3ccccc3C)ccc21 [NCGC00521140-01] | – | – | – | AC50 [5, 9]: 1e-05 M
18 | CCCn1c2c(c(=N)c3c1CCC3)CCC2 [MLS001047442-01] | – | > 57 | 13.3 | viability at 48 h (in vitro [6]): 99.2%; viability at 48 h, 1 µM (in vitro [6]): 99.2%
19 | CCCN1C(CC(C)C)=N[S+](=O)([O-])c2cc(N[S+](=O)([O-])c3ccc(Cl)s3)ccc21 [NCGC00521874-01] | – | – | – | AC50 [2, 8]: 8.93e-07 M; AC50 [3]: 1.42e-06 M; AC50 [5, 9]: 7.1e-07 M

Row | Structure (SMILES) | Log AC50 (M) (HepG2) | CC50 at 48 h (in vitro [1]) [µM] | AC50 [4] [µM] | other results
20 | CCCN1C(C)=N[S+](=O)([O-])c2cc(NC(=O)c3ccc(F)cc3)ccc21 [NCGC00522607-01] | – | – | – | AC50 [2, 8]: 1.26e-06 M; AC50 [3]: 1.12e-06 M
21 | Cc1noc(C)c1-c1cc2c(cc(-c3ccccc3)n2C)c(-c2ccnn2C)n1 [NCGC00417162-01] | – | > 57 | 8.63 | –
22 | Cc1csc(Nc2ccc3c(n2)CN(Cc2ccccc2C)C(=O)CO3)n1 [NCGC00413860-01] | – | > 57 | 19.3 | –
23 | CCCN1C(CC(C)C)=N[S+](=O)([O-])c2cc(NC(=O)C3CCOCC3)ccc21 [NCGC00521138-01] | – | – | – | AC50 [2, 8]: 3.99e-06 M; AC50 [5, 9]: 1.22e-05 M
24 | Cc1nn2c(c1-c1ccccc1C(C)C)N(CCC(C)C)CCC2 [NCGC00420439-01] | – | > 57 | 2.17 | –
25 | CCN1CCN(c2cc(C)c3cc(NC(=O)c4cccc(Cl)c4)ccc3n2)CC1 [NCGC00103820-01] | – | > 57 | 4.73 | –
26 | COc1ccc(N2CCN(c3cc(C4CC(N)C4)nc(N)n3)CC2(C)C)cc1 (stereo not drawn) [NCGC00422579-01] | – | > 57 | 2.99 | HepG2 viability signal, 1 uM, repeat 2 (HepG2-A16-CD81EGFP cells): 102.33%; HepG2 viability signal, 3 uM, repeat 2 (HepG2-A16-CD81EGFP cells): 97.69%; viability at 48 h, 1 µM (in vitro [6]): 103%; viability at 48 h, 3 µM (in vitro [6]): 102%; activity at 1 µM [7, 10]: 82.6%; activity at 1 µM [7, 11]: 91.8%; activity at 1 µM [7, 12]: 99.3%; activity at 3 µM [7, 13]: 76.6%; activity at 3 µM [7, 14]: 88.5%; activity at 3 µM [7, 15]: 81.6%
27 | CCCN1C(C)=N[S+](=O)([O-])c2cc(NC(=O)c3cccs3)ccc21 [NCGC00522606-01] | – | – | – | AC50 [2, 8]: 2e-06 M; AC50 [3]: 8.93e-06 M
28 | CCCN1C(CC(C)C)=N[S+](=O)([O-])c2cc(N[S+](=O)([O-])c3ccccc3)ccc21 [NCGC00521146-01] | – | – | – | AC50 [2, 8]: 7.1e-06 M; AC50 [3]: 7.96e-06 M
29 | Cc1nn2c(c1-c1ccccc1[S+](C)(=O)[O-])N(Cc1ccc(C(=O)O)s1)CCC2 [NCGC00420344-01] | – | > 57 | 7.69 | –
30 | Cc1nn2c(c1-c1ccccc1OCc1ccccc1)N(Cc1ccccc1)CCC2 [NCGC00420471-01] | – | > 57 | 15.3 | –
31 | Cc1nn2c(c1-c1ccccc1-c1ccccc1)N(Cc1cccc(O)c1)CCC2 [NCGC00420293-01] | – | > 57 | 4.85 | –
32 | Cc1nn2c(c1-c1ccccc1Oc1ccccc1)N(Cc1cccc(O)c1)CCC2 [NCGC00420295-01] | – | > 57 | 10.9 | –
33 | CN(C)c1ccc2ncc(Nc3ccc(Oc4ccccc4)cc3)n2n1 [NCGC00412534-01] | – | > 57 | 8.63 | –
34 | CCCN1C(CC(C)C)=N[S+](=O)([O-])c2cc(N[S+](=O)([O-])c3cc4ccccc4s3)ccc21 [NCGC00521156-01] | – | – | – | AC50 [2, 8]: 1e-06 M; AC50 [3]: 1.26e-06 M
35 | CCCN1C(CC(C)C)=N[S+](=O)([O-])c2cc(NC(=O)C(=O)OCC)ccc21 [NCGC00521135-01] | – | – | – | AC50 [2, 8]: 7.96e-06 M; AC50 [3]: 1.59e-05 M
36 | CN1C(CCl)Nc2cc(Cl)c([S+](N)(=O)[O-])cc2[S+]1(=O)[O-] (stereo not drawn) [NCGC00167446-03] | – | – | – | AC50 [2, 8]: 3.17e-08 M; AC50 [3]: 2.82e-08 M; AC50 [5, 9]: 3.17e-08 M
37 | Cc1nn2c(c1-c1ccccc1Oc1ccccc1)N(Cc1ccccc1O)CCC2 [NCGC00420455-01] | – | > 57 | 4.85 | HepG2 viability signal, 1 uM, repeat 2 (HepG2-A16-CD81EGFP cells): 99.80%; HepG2 viability signal, 3 uM, repeat 2 (HepG2-A16-CD81EGFP cells): 116.91%; viability at 48 h, 1 µM (in vitro [6]): 104%; viability at 48 h, 3 µM (in vitro [6]): 115%; activity at 1 µM [7, 10]: 75.6%; activity at 1 µM [7, 11]: 75%; activity at 1 µM [7, 12]: 78.3%; activity at 3 µM [7, 13]: 1.18%; activity at 3 µM [7, 14]: 4.89%; activity at 3 µM [7, 15]: 23.7%; AC50 ([7]; Hill fit, 50% of maximum activity response, read-out: AC50): 1.41 µM; AC50 ([7]; log10 of molar AC50 from Hill fit, read-out: Log AC50 (converted)): 1.41 µM
